Source: patent US10787452B2 (Vertex Pharmaceuticals Incorporated, priority 2012, dated 2020)

system: HCT116 colorectal cancer cells; experiment: Cisplatin sensitization assay (96 h cell viability MTS); assay type: cell-based; settings: 96 h MTS, compound plus Cisplatin;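 further: compound concentration needed to lower the Cisplatin-alone IC50 by a set fold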
Experimental: Compounds can be screened for their ability to sensitize HCT116 colorectal cancer cells to Cisplatin using a 96 h cell viability (MTS) assay. […] Compounds and Cisplatin are then both added simultaneously to the cell media in 2-fold serial dilutions from a top final concentration of 10 μM as a full matrix of concentrations in a final cell volume of 200 μl, and the cells are then incubated at 37° C. in 5% CO2. After 96 h, 40 μl of MTS reagent (Promega G358a) is added to each well and the cells are incubated for 1 h at 37° C. in 5% CO2.

| SMILES | Cisplatin Sensitization Assay |
| --- | --- |
| CN1CCN(C(=O)c2cnc(-c3ccncc3NC(=O)c3c(N)nn4cc(F)cnc34)c(Cl)c2)CC1 [I-C-46, 2-amino-N-(3-chloro-5-(4-methylpiperazine-1-carbonyl)-[2,4′-bipyridin]-3′-yl)-6-fluoropyrazolo[1,5-a]pyrimidine-3-carboxamide] | + (Compounds with a Cisplatin sensitization value >0.2 μM but <5 μM are marked with “+.”) |
| Nc1nn2cc(F)cnc2c1C(=O)Nc1cnccc1C1CCN(S(=O)(=O)C2CC2)CC1 [I-C-47, 2-amino-N-(4-(1-(cyclopropylsulfonyl)piperidin-4-yl)pyridin-3-yl)-6-fluoropyrazolo[1,5-a]pyrimidine-3-carboxamide] | +++ (Compounds with a Cisplatin sensitization value of <0.02 μM are marked with “+++.”) |
| Nc1nn2cc(F)cnc2c1C(=O)Nc1cnccc1-c1ccc(C(=O)N2CCN3CCC2CC3)cc1 [I-C-48, N-(4-(4-(1,4-diazabicyclo[3.2.2]nonane-4-carbonyl)phenyl)pyridin-3-yl)-2-amino-6-fluoropyrazolo[1,5-a]pyrimidine-3-carboxamide] | +++ (Compounds with a Cisplatin sensitization value of <0.02 μM are marked with “+++.”) |
| Nc1nn2cc(F)cnc2c1C(=O)Nc1cnccc1-c1ccc(C(=O)N2CCN(C3COC3)CC2)cc1 [I-C-49, 2-amino-6-fluoro-N-(4-(4-(4-(oxetan-3-yl)piperazine-1-carbonyl)phenyl)pyridin-3-yl)pyrazolo[1,5-a]pyrimidine-3-carboxamide] | +++ (Compounds with a Cisplatin sensitization value of <0.02 μM are marked with “+++.”) |
| Nc1nn2cc(F)cnc2c1C(=O)Nc1cnccc1-c1ccc(C(=O)N2CCN(C3COC3)CC2)cc1F [I-C-51, 2-amino-6-fluoro-N-(4-(2-fluoro-4-(4-(oxetan-3-yl)piperazine-1-carbonyl)phenyl)pyridin-3-yl)pyrazolo[1,5-a]pyrimidine-3-carboxamide] | ++ (Compounds with a Cisplatin sensitization value >0.02 μM but <0.2 μM are marked with “++.”) |
| Nc1nn2cc(F)cnc2c1C(=O)Nc1cnccc1-c1ccc(C(=O)N2CCN(C3COC3)CC2)nc1 [I-C-52, 2-amino-6-fluoro-N-(6-(4-(oxetan-3-yl)piperazine-1-carbonyl)-[3,4′-bipyridin]-3′-yl)pyrazolo[1,5-a]pyrimidine-3-carboxamide] | ++ (Compounds with a Cisplatin sensitization value >0.02 μM but <0.2 μM are marked with “++.”) |
| Nc1nn2cc(F)cnc2c1C(=O)Nc1cnccc1-c1ccc(C(=O)N2CCC(N3CCCC3)CC2)nc1 [I-C-53, 2-amino-6-fluoro-N-(6-(4-(pyrrolidin-1-yl)piperidine-1-carbonyl)-[3,4′-bipyridin]-3′-yl)pyrazolo[1,5-a]pyrimidine-3-carboxamide] | +++ (Compounds with a Cisplatin sensitization value of <0.02 μM are marked with “+++.”) |
| Nc1nn2cc(F)cnc2c1C(=O)Nc1cnccc1-c1ccc(C(=O)N2CCC(N3CCC3)CC2)nc1 [I-C-54, 2-amino-N-(6-(4-(azetidin-1-yl)piperidine-1-carbonyl)-[3,4′-bipyridin]-3′-yl)-6-fluoropyrazolo[1,5-a]pyrimidine-3-carboxamide] | +++ (Compounds with a Cisplatin sensitization value of <0.02 μM are marked with “+++.”) |
| Cn1ccnc1-c1ccncc1NC(=O)c1c(N)nn2cc(F)cnc12 [I-C-55, 2-amino-6-fluoro-N-(4-(1-methyl-1H-imidazol-2-yl)pyridin-3-yl)pyrazolo[1,5-a]pyrimidine-3-carboxamide] | + (Compounds with a Cisplatin sensitization value >0.2 μM but <5 μM are marked with “+.”) |
| Cn1cncc1-c1ccncc1NC(=O)c1c(N)nn2cc(F)cnc12 [I-C-56, 2-amino-6-fluoro-N-(4-(1-methyl-1H-imidazol-5-yl)pyridin-3-yl)pyrazolo[1,5-a]pyrimidine-3-carboxamide] | +++ (Compounds with a Cisplatin sensitization value of <0.02 μM are marked with “+++.”) |
| Cn1nccc1-c1ccncc1NC(=O)c1c(N)nn2cc(F)cnc12 [I-C-57, 2-amino-6-fluoro-N-(4-(1-methyl-1H-pyrazol-5-yl)pyridin-3-yl)pyrazolo[1,5-a]pyrimidine-3-carboxamide] | +++ (Compounds with a Cisplatin sensitization value of <0.02 μM are marked with “+++.”) |
| Cn1c(-c2ccncc2NC(=O)c2c(N)nn3cc(F)cnc23)cccc1=O [I-C-58, 2-amino-6-fluoro-N-(1-methyl-6-oxo-1,6-dihydro-[2,4′-bipyridin]-3′-yl)pyrazolo[1,5-a]pyrimidine-3-carboxamide] | +++ (Compounds with a Cisplatin sensitization value of <0.02 μM are marked with “+++.”) |
| Cn1cc(-c2ccncc2NC(=O)c2c(N)nn3cc(F)cnc23)ccc1=O [I-C-59, 2-amino-6-fluoro-N-(1-methyl-6-oxo-1,6-dihydro-[3,4′-bipyridin]-3′-yl)pyrazolo[1,5-a]pyrimidine-3-carboxamide] | ++ (Compounds with a Cisplatin sensitization value >0.02 μM but <0.2 μM are marked with “++.”) |
| Nc1nn2cc(F)cnc2c1C(=O)Nc1cnccc1-c1ccccn1 [I-C-60, N-([2,4′-bipyridin]-3′-yl)-2-amino-6-fluoropyrazolo[1,5-a]pyrimidine-3-carboxamide] | ++ (Compounds with a Cisplatin sensitization value >0.02 μM but <0.2 μM are marked with “++.”) |
| CS(=O)(=O)c1ccc(-c2ccncc2NC(=O)c2c(N)nn3cc(F)cnc23)cc1 [I-C-61, 2-amino-6-fluoro-N-(4-(4-(methylsulfonyl)phenyl)pyridin-3-yl)pyrazolo[1,5-a]pyrimidine-3-carboxamide] | +++ (Compounds with a Cisplatin sensitization value of <0.02 μM are marked with “+++.”) |
| Cc1nccnc1-c1ccncc1NC(=O)c1c(N)nn2cc(F)cnc12 [I-C-62, 2-amino-6-fluoro-N-(4-(3-methylpyrazin-2-yl)pyridin-3-yl)pyrazolo[1,5-a]pyrimidine-3-carboxamide] | ++ (Compounds with a Cisplatin sensitization value >0.02 μM but <0.2 μM are marked with “++.”) |
| Cc1nn(C)cc1-c1ccncc1NC(=O)c1c(N)nn2cc(F)cnc12 [I-C-63, 2-amino-N-(4-(1,3-dimethyl-1H-pyrazol-4-yl)pyridin-3-yl)-6-fluoropyrazolo[1,5-a]pyrimidine-3-carboxamide] | +++ (Compounds with a Cisplatin sensitization value of <0.02 μM are marked with “+++.”) |
| Nc1nn2cc(F)cnc2c1C(=O)Nc1cnccc1-c1ccc(S(=O)(=O)N2CCC2)cc1 [I-C-64, 2-amino-N-(4-(4-(azetidin-1-ylsulfonyl)phenyl)pyridin-3-yl)-6-fluoropyrazolo[1,5-a]pyrimidine-3-carboxamide] | +++ (Compounds with a Cisplatin sensitization value of <0.02 μM are marked with “+++.”) |
| Cn1ncnc1-c1ccncc1NC(=O)c1c(N)nn2cc(F)cnc12 [I-C-65, 2-amino-6-fluoro-N-(4-(1-methyl-1H-1,2,4-triazol-5-yl)pyridin-3-yl)pyrazolo[1,5-a]pyrimidine-3-carboxamide] | ++ (Compounds with a Cisplatin sensitization value >0.02 μM but <0.2 μM are marked with “++.”) |
